# Assay results taken from patent US11242344B2, “(4-hydroxypyrrolidin-2-yl)-heterocyclic compounds and methods of use thereof” (Genentech, Inc., priority 2017, dated 2022).
# Legend:
# MYC expression = assay: Inhibition of MYC expression in MV-4-11 cells; assay type: cell-based; details: 4 h; for IC50: QuantiGene 2.0, geometric mean; for Maximum Inhibition (%): maximum inhibition of MYC expression
# Description: Pharmacologic inhibition of MYC is achievable through targeting BET bromodomains through small molecule binder or degrader mechanisms. Such inhibitors may have clinical utility given the widespread pathogenetic role of MYC in cancer. See, e.g., Mertz J, et al., “Targeting MYC dependence in cancer by inhibiting BET bromodomains,” (2011) Proc. Natl. Acad. Sci. USA, Vol. 108 (40), pp. 16669-16674.
# To determine the inhibition of MYC expression, MV-4-11 cells (ATCC) were plated at 10,000 cells per well in 96-well plates in RPMI1640 media supplemented with 10% fetal bovine serum and 2 mM L-glutamine. Test compounds diluted in DMSO were transferred to the cell plates, keeping final DMSO concentration consistent at 0.1%, and incubated for 4 h at 37° C. Lysis and analysis for MYC expression were carried out using QuantiGene 2.0 reagents (Affymetrix/eBioscience, probe set cat #SA-50182) and following the vendor's instructions. Luminescence was read using an EnVision plate reader (PerkinElmer) and IC50s generated in Genedata Screener using a 4-parameter non-linear regression fit.
# Effective degraders will surpass this and inhibit >95% of MYC, thus following the maximum inhibition within this assay provides valuable SAR. Where more than one measurement was performed for the same assay, the value reported is the geometric mean of all values.
# BRD4 = BRD4 (Homo sapiens (Human), UniProt O60885); assay: BRD4 degradation assay in PC3 (Steap-1) prostate cancer cells, high content fluorescence imaging; assay type: cell-based; details: PC3 (Steap-1) cells, 4 hours; for DC50: BRD4 immunofluorescence, read-out: PC3 (Steap-1) EC50; for PC3 (Steap-1) Sinf (%): maximum degradation, percent change in protein level (-100% = complete loss)
# Description: PC3 (Steap-1) prostate cancer cells: PC3 (Steap-1) prostate cancer cells (PC3 cells overexpressing the surface protein Steap-1) were seeded on day 1 at a density of 200,000 cells/mL in 45 μl/well in cell plates in a 384 well Greiner/Perkin Elmer Cell Carrier TC Treated plate (part #6007430) in Assay Medium (RPMI, 10% FBS, 2 mM Glutamax). Cells were incubated overnight at 37° C. degrees. On day 2, compounds were serially diluted 3-fold in DMSO spanning the concentrations 10 mM to 8.6 nM, in 384 well clear polypropylene plates (Greiner Cat #781201). DMSO and 10 mM of a control PROTAC (dBET1, as described in WO 2017/024317, p. 235, structure below) (control compound) were added to designated wells. Compounds and controls were diluted 50-fold (2 μl of DMSO stock into 98 μl) into Assay Medium. 5 μl of the diluted compounds was transferred to the cell plates. The final top concentration of the test compounds in the cell plates was 20 μM. Cell plates were incubated at 37° C., for 4 hours. Fixation and permeabilization were carried out using a Biotek EL406 plate washer and dispenser as follows. Cells were fixed by addition of 15 μL of 16% paraformaldehyde (Electron Microscopy Sciences #15710-S) directly to the 50 μL cell culture medium in each well using the peristaltic pump 5 μL cassette on a Biotek EL406 (final concentration of formaldehyde was 3.7% w/v). Samples were incubated 30 minutes. Well contents were aspirated and 50 μL/well of Phosphate Buffered Saline (PBS) containing 0.5% w/v bovine serum albumen, 0.5% v/v Triton X-100 (Antibody Dilution Buffer) was added to each well. Samples were incubated for 30 minutes. Well contents were aspirated and washed 3 times with 100 μL/well of PBS.
# For both the PC3 and EOL-1 cell assays, immunofluorescence staining of BRD4 was carried out using a Biotek EL406 plate washer and dispenser as follows. The well supernatant was aspirated from the wells and 25 μL/well of rabbit mAb Anti-BRD4 [EPR5150(2)] abeam 128874 diluted 1:500 in Antibody Dilution Buffer is dispensed. Samples were incubated for 2 hours at room temperature. Samples were washed 4 times with 100 μL/well of PBS. 25 μL/well of secondary antibody solution (Goat Anti-Rabbit IgG, DyLight 488 Conjugated Highly Cross-adsorbed #35553 1:1000) diluted 1:1000 and Hoechst 33342 1 μg/ml diluted in Antibody Dilution Buffer) were dispensed into each well. 16 wells of the plate, which were designated as ‘no primary antibody” wells, received only Antibody Dilution Buffer (without anti-BRD4 antibody). Samples were incubated for 2 hours at room temperature. Samples were washed 3 times with 100 μL/well of PBS using a Biotek EL406. Quantitative fluorescence imaging of BRD4 was carried out using a Phenix (Perkin Elmer). Fluorescence images of the samples (Channel 1: Hoechst33342 (DNA stain); Channel 2: 488 nm (BRD4 stain)) were acquired. Channel 1 (DNA stain) was used to define the “Region of Interest” (ROI) nuclear region. Measurements of BRD4 average immunofluorescence intensity within the ROI (nuclear region), were made on a per cell basis and averaged over all the measured cells. Data analysis was carried out using Genedata Screener Software, with DMSO and “no primary antibody” samples being used to define the 0% and 100% changes in BRD4. The “Robust Fit” method was used to define the inflexion point of curve (EC50) and the plateau of the maximal effect (Sinf). The Sinf value reports degradation as percent change in protein level, so complete loss of the protein target is −100%. […]
IC50 (MYC expression) [µM],DC50 (BRD4) [µM],PC3 (Steap-1) Sinf (%) (BRD4),SMILES,Maximum Inhibition (%) (MYC expression)
0.0174,> 20,,"Cc1ncsc1-c1ccc([C@]2(C)NC(C3C[C@@H](O)CN3C(=O)C(c3cc(OCCCCCNC(=O)c4cc5c(cc4CS(C)(=O)=O)-c4cn(C)c(=O)c6[nH]cc(c46)CN5c4ncc(F)cc4F)no3)C(C)C)=NC2=O)cc1 (single isomer, unassigned) [Example 1001.1]",82.3
0.0274,0.14,−29.0,"Cc1ncsc1-c1ccc([C@]2(C)NC(C3C[C@@H](O)CN3C(=O)C(c3cc(OCCCCCNC(=O)c4cc5c(cc4CS(C)(=O)=O)-c4cn(C)c(=O)c6[nH]cc(c46)CN5c4ncc(F)cc4F)no3)C(C)C)=NC2=O)cc1 (single isomer, unassigned) [Example 1001.3]",79.2
0.00171,0.0033,−97.2,"Cc1ncsc1-c1ccc([C@]2(C)NC(C3C[C@@H](O)CN3C(=O)C(c3cc(OCCCCCNC(=O)c4cc5c(cc4CS(C)(=O)=O)-c4cn(C)c(=O)c6[nH]cc(c46)CN5c4ncc(F)cc4F)no3)C(C)C)=NC2=O)cc1 (single isomer, unassigned) [Example 1001.2]",98.4
